Experimental data from PMC10938262 (Science translational medicine, 2023).

Biological target: T1, human estrogen receptor α (ERα) (Homo sapiens, UniProt P03372)
T1 sequence (P03372 302-552 limits assumed): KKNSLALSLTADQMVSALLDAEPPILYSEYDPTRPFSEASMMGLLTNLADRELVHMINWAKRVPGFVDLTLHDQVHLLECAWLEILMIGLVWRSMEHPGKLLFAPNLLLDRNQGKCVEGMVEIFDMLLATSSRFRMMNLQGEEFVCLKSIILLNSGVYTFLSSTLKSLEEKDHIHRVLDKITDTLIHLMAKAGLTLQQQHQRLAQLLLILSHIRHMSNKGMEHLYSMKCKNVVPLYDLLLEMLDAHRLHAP
Type: binding

## C[C@]12CC[C@@H]3c4ccc(O)cc4CC[C@H]3[C@@H]1C[C@@H](F)[C@@H]2O [FES, 16α-fluoroestradiol]
  Ki: 0.3 ± 0.1 nM
